In patent US8629116B2, “Method for inducing a TRIF-bias” (priority 2008, dated 2014):

Key:
[1] = system: RAW264.7 siRNA cell lines; assay: Cytokine production in stably transfected RAW264.7 siRNA (MyD88, TRIF, LUC) cell lines; assay type: cell-based, mouse; conditions: for potency for TNFα production: 20 hours
Experimental: Exponentially growing RAW264.7 cells are stably transfected with FuGene 6 by conventional methods in Optimem (Roche, Indianapolis Ind.) with psiRNA-mTICAM1, psiRNA-mMyD88, or psiRNA-LUC (irrelevant control) plasmids containing shRNA sequences for protein knockdown, a Zeocin resistance gene and a GFP coding sequence (InVivoGen, San Diego, Calif.). Transfection efficiency after selection is determined by percent GFP positive cells using the ImageStream.
RNA interference (RNAi) is utilized to disrupt expression of specific genes that are involved in TLR signaling pathways: […] and MyD88. RAW264.7 siRNA cell lines are prepared using commercially available plasmids (Invivogen). These plasmids contain a Zeocin selection marker, a sequence coding for GFP and the sequence coding for shRNA for knockdown. Once the cells are efficiently transfected, stable cell lines are generated through antibiotic selection. Purity of cultures is determined by GFP+ cells within the culture system. An irrelevant plasmid is also used to stably transfect cells as a control.
To determine whether TRIF or MyD88 are required for the cytokine response after stimulation with L and D isomers, stably transfected siRNA cell lines are stimulated for 20 hours (in an assay similar to the MM6 potency assay) or 4 hours (to capture MyD88 induced cytokine responses) and cellular supernatants are assayed for TNFα (MyD88) and IP-10 (TRIF). Twenty hours post-stimulation, the irrelevant control, LUC cell line has a similar IP-10 induction pattern as the wt RAW264.7 cells shown previously. […] When TRIF is intact (in MyD88 knockdown cell lines) the IP-10 levels remain dose responsive and total cytokine is increased above the irrelevant control (LUC). Other assay systems (including human and mouse systems) support the hypothesis that both L and D isomers are efficient at inducing TRIF mediated cytokines.
In order to better discriminate the MyD88 requirement for TNFα production, siRNA knockdown cell lines are examined for TNFα production after four hours of AGP stimulation (FIG. 35). […]

[2] = system: human peripheral blood mononuclear cells (PBMCs); assay: Cytokine/chemokine induction in fresh human PBMCs; assay type: cell-based
Experimental: Peripheral blood mononuclear cells (PBMCs) are isolated from the blood of healthy donors via a Ficoll Hypaque 1.077 gradient and treated with agonists or are used to isolate adherent monocytes in monocyte media (RPMI 1640 (ATCC), 10% human AB serum (Lonza/BioWhittaker), 100 U/mL penicillin/100 ug/mL streptomycin (Sigma), 50 uM 2-mercaptoethanol (Sigma) as described (Stover et al. 4440-49; Kawai et al. 5887-94; Gervassi et al. 7231-39). Monocyte-derived macrophages are produced by incubating adherent monocytes for 5 days in monocyte media with 50 ng/mL rhM-CSF (R&D Systems) with media changes at day 3 and day 5 before agonist treatment. Monocyte-derived dendritic cells (DC) are produced by incubating adherent monocytes for 7 days in monocyte media with 10 ng/mL rhGM-CSF and 10 ng/mL rhIL-4 (R&D Systems) with media changes on day 3 and day 6.
Expression of TNFα and MIP-1α are dependent upon signaling through the TLR4 adaptor, MyD88, while expression of IP-10 and RANTES are dependent upon signaling through the TLR4 adaptor, TRIF/TICAM-1 (Hoebe et al, Kawai et al).

[3] = biological target: T1, muTLR4, muMD-2, and muCD14 (Mus musculus, UniProt Q9JHF9+Q9QUK6); assay: NFκB reporter activity in HEK293 cells transfected with muTLR4, muMD-2, muCD14; assay type: cell-based; conditions: HEK293 muTLR4/muMD-2/muCD14
T1 construct: expressed in transfected cells; host or cells: HEK293
T1 sequence (Q9QUK6 26-835): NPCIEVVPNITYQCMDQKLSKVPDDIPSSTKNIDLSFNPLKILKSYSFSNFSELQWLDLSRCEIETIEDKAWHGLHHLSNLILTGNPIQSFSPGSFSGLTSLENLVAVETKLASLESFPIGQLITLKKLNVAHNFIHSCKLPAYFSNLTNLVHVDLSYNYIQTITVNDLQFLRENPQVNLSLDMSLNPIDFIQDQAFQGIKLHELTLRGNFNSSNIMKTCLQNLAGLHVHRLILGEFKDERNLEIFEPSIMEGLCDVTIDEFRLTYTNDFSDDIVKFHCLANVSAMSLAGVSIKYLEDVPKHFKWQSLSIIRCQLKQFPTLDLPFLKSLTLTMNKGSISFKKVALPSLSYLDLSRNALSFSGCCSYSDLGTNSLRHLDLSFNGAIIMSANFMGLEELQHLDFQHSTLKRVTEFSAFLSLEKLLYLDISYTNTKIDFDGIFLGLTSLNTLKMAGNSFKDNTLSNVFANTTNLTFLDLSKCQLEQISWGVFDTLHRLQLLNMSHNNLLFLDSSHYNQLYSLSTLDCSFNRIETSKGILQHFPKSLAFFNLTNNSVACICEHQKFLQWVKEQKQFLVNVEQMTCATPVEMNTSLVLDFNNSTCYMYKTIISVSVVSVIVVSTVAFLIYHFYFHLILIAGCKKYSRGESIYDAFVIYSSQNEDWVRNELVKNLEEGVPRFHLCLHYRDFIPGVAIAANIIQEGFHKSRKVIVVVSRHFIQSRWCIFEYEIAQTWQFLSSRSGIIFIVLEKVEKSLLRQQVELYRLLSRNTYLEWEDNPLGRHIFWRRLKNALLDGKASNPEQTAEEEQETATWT
T1 sequence (Q9JHF9 19-160): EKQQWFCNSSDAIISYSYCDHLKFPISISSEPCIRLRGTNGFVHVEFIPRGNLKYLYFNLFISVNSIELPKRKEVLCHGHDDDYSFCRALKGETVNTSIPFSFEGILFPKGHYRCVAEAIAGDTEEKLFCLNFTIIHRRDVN

[4] = compared among LPS, CRX-527, CRX-547

| SMILES | potency for TNFα production ([1]; MyD88 or TRIF knocked down) | potency at inducing TNFα versus equivalent dose of CRX-547 ([1]; four hours) | potency for TNFα production ([1]; irrelevant control (LUC)) | induction of MIP-1α (MyD88-dependent) [2, 4] | induction of TNFα (MyD88-dependent) [2, 4] | induction of IP-10 (TRIF-dependent) ([2]; relative to CRX-527 and LPS) | induction of RANTES (TRIF-dependent) ([2]; relative to CRX-527 and LPS) | NFκB reporter activity [3] |
| --- | --- | --- | --- | --- | --- | --- | --- | --- |
| CCCCCCCCCCCC(CC(=O)NC(COC1OC(CO)C(OP(=O)(O)O)C(OC(=O)CC(CCCCCCCCCCC)OC(=O)CCCCCCCCC)C1NC(=O)CC(CCCCCCCCCCC)OC(=O)CCCCCCCCC)C(=O)O)OC(=O)CCCCCCCCC.CCN(CC)CC (centres unmarked) [CRX-527] | same increased potency | more potent | more potent |  |  |  |  |  |
| CCCCCCCCCCCC(CC(=O)NC(COC1OC(CO)C(OP(=O)(O)O)C(OC(=O)CC(CCCCCCCCCCC)OC(=O)CCCCCCCCC)C1NC(=O)CC(CCCCCCCCCCC)OC(=O)CCCCCCCCC)C(=O)O)OC(=O)CCCCCCCCC.CCN(CC)CC (centres unmarked) [CRX-547] |  |  |  | significantly lower levels | significantly lower levels | comparable levels | comparable levels | more similar to CRX-527 and LPS |
